# Measurements reported in US8802104B2, “Parathyroid hormone receptor activation and stem and progenitor cell expansion” (The General Hospital Corporation, priority 2002, dated 2014).
# Columns and labels:
# [1] = test system: primary murine stromal cell cultures; experiment: Alkaline phosphatase staining of primary stromal cell cultures; assay type: cell-based, mouse; settings: after 14 days, PTH vs vehicle, FIG. 5b
# Method: LTC-IC assays were performed using wild-type stroma and hematopoietic cells. Rat PTH (1-34) (Bachem, Torrance, Calif.) or vehicle was added to each media change either during stroma establishment and/or during culture maintenance to a final concentration of 10^−7 M. Medium was changed every three days for two weeks or until stromal layers became confluent. For alkaline phosphatase staining, primary mononuclear cells obtained as described above from wild-type and or transgenic littermates were then cultured in 24-well plates at an initial concentration of 5×10^6 cells/ml. At 10 or 14 days after seeding, medium was suctioned off, and the adherent cells were gently rinsed twice in PBS. After fixation in 10% Neutral Formalin Buffer for 30 minutes at room temperature, alkaline phosphatase activity was determined histochemically by incubation for 45 minutes at RT with a mixture of 0.1 mg/ml naphthol AS-MX phosphate (Sigma), 0.5% N,N-dimethylformamide, 0.6 mg/ml red violet LB salt (Sigma) in 0.1 M Tris-HCl (pH 8.5). Alkaline phosphatase positive cells were counted at day 10 of culture, when the cultures were subconfluent and individual cells could be identified. For inhibition of γ-secretase activity, 30 μM of γ-secretase inhibitor II (Calbiochem) dissolved in DMSO was added to the long-term culture medium and LTC-IC assays were performed as described. […]
# [2] = PTH administration following myeloablation and bone marrow transplantation: survival; assay type: in vivo, C57Bl/6 mice; settings: at 30 days; lethal irradiation, limiting numbers of donor bone marrow cells, pulse dosing of PTH after transplant; FIG. 6
# Method: (§1) For the competitive transplant studies, 4×10^5 BM MNCs, obtained from CD45.1^+ B6.SJL (Jackson Laboratories, Bar Harbor, Me.) mice were mixed with 2×10^5 cells from mock injected or PTH injected CD45.2^+ C57Bl/6 mice. Recipient B6.SJL mice that had been lethally irradiated 24 hours previously with 10Gy of radiation (^137Cs source) were injected with cells. After 6 weeks, the mice were euthanized with CO2, the BM was removed and flushed with fully supplemented Iscove's Medium. The relative contribution of engraftment from the different cell sources was assessed by flow cytometry utilizing anti-CD45.1 and anti-CD45.2 antibodies (Pharmingen, San Diego, Calif.). To assess the effects of PTH administration post transplantation, recipient C57Bl/6 mice were lethally irradiated and then injected with 2×10^5 BM MNCs from a donor B6.SJL mouse. Twenty-four hours following the injection of the cells, mice were injected with PTH or mock injected as described above for four weeks.
# Assessing whether PPR stimulation could affect models relevant to the clinical use of stem cells in humans, the impact of PTH administration on animals undergoing myeloablation and bone marrow transplantation was assessed. Limiting numbers of bone marrow derived donor cells were used to mimic a setting of therapeutic need. […]
# [3] = test system: C-1498/GFP leukemia cells; experiment: Leukemia outgrowth in niche-stimulated animals; assay type: in vivo, mice
# Text: The kinetics of leukemia cell engraftment, growth, and maturation were studied in normal mice. In an effort to analyze the growth and fate of C-1498 leukemia cells transplanted into mice, the cells were transduced with a retrovirus expressing GFP(C-1498/GFP). This allows easy tracking of these cells in vivo using GFP as a marker (FIG. 9a). The acute myelogenous leukemia cell line C-1498, a spontaneously-arising acute myelomonocytic leukemia derived from C57/BL6 (H2-b) mice, is easily transplantable, can be cultured in vitro, and infected with retroviruses.
# Attention was subsequently directed to determining how activation of the stem cell niche with PTH might affect leukemia growth and maturation. To investigate the kinetics of leukemia outgrowth in “niche-stimulated” animals, animals were pre-stimulated with PTH at 80 μg/kg/day (versus saline alone) for one month. Mice were then lethally irradiated at 10 Gray, and then transplanted with 50,000 leukemia cells (GFP+) and 1×10^6 normal bone marrow cells (GFP-) (FIG. 10a). At 15 days post-transplantation, bone marrow was harvested, and, then, GFP-positive cells were scored as percentage and in absolute number. Since the absolute number of total cells was not statistically different between both groups, only the percentage figures are shown in FIG. 10b, left panel.
# In mock-treated animals, osteoblasts and osteoprogenitors, identified at PTH-receptor positive cells, were found lining the endostial surfaces of bone.
# [4] = test system: HSCs (CD45.2+ cells in bone marrow); experiment: Competitive transplantation into secondary recipients; assay type: in vivo; settings: donor mice PTH treated four weeks; read 6 weeks after transplant; P<0.05, FIG. 5f
# Method: as §1
# As treatment of stromal cells with PTH led to an increase in the ability of the stromal cell population to support hematopoietic stem cells, it was investigated whether these effects could be recapitulated in vivo. Wild-type C57Bl/6 mice were injected daily with PTH using an intermittent dosing schedule known to increase osteoblasts, and the frequencies of LTC-ICs in the bone marrow were measured. […]
substance,measurement,setting,value
Rat PTH (1-34),alkaline phosphatase positive (osteoblastic) cells,[1],an increase in alkaline positive cells
same,survival,[2],100%
same,"localisation of PTH-r positive cells (osteoblasts, osteoprogenitors)","[3]; 10 micron bone sections, PTH-treated animals",migrated extensively into the marrow
same,GFP-positive leukemia cells in bone sections (histology),"[3]; 10 micron bone sections, PTH-treated vs mock-treated",markedly reduced
same,number of GFP-positive leukemia initiating cells in bone marrow,"[3]; PTH 80 μg/kg/day one month pre-stimulation, 15 days post-transplantation, 3 of 3 experiments",markedly reduced
same,kinetics of normal hematopoiesis,"[3]; PTH treated animal, FIG. 11",did not change
same,"increase in HSCs, competitive transplantation",[4],> 2 fold
